Literature values as cited in patent EP1935397A1, “Oral and tooth care and cleaning agents for combating halitosis” (Henkel AG & Co. KGaA, priority 2006, dated 2008).
Read-outs that look alike come from different tables or passages of the source.

Löslichkeit (20°C)	Molecule	further results
960 g/l (20°C)	Zinksulfat-Heptahydat	–
~350 g/l (20°C)	Zinksulfat-Monohydrat	–
430 g/l (20°C)	Zinkacetat-Dihydrat	–
4500 g/l (20°C)	Zinkiodid	–
–	Zinknitrat-Tetrahydrat	Löslichkeit (20°C, result in words): Leicht löslich (20°C)
0,9 mg/l (20°C)	Zinkstearat	–
–	Zinkchlorid	Löslichkeit (25°C): 4320 g/l (25°C)
–	[O-2].[Zn+2] [Zinkoxid]	Löslichkeit (temperature not given, result in words): Unlöslich
1843 g/l (20°C)	Zinknitrat Hexahydrat	–
–	Zinkbromid	Löslichkeit (25°C): 820 g/l (25°C)
–	Zinkhydroxycarbonat	Löslichkeit (20°C, result in words): Fast unlöslich (20°C)
100 g/l (20°C)	Zinkgluconat	–
